Where “and” joins values, the source holds several entries; their conditions need not be identical. Equal values may be shown once.

This experiment has as its target T1, GCase (GBA) in human fibroblast cell line GM10915 harboring the L444P GBA mutation (Homo sapiens, UniProt P04062, L483P).
T1 construct: Human fibroblast cell line GM10915 harboring the L444P GBA mutation; host or cells: GM10915 human fibroblasts
T1 sequence (P04062 40-536 L483P): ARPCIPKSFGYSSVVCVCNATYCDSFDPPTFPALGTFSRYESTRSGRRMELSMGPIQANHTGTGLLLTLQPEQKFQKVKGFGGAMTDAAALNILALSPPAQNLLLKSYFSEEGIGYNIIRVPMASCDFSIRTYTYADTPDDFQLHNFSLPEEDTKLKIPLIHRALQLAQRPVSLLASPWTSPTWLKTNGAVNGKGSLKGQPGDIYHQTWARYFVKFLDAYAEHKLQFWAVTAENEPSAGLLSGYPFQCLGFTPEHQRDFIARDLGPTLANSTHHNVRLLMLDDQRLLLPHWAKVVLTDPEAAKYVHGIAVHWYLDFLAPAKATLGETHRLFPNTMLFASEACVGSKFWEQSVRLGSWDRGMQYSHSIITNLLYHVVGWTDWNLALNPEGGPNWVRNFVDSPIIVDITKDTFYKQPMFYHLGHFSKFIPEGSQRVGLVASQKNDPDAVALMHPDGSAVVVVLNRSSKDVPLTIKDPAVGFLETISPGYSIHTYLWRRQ
In words: GCase activity assay (4-MUG substrate, normalised to crystal violet staining) in L444P GBA fibroblasts. To be noted: 5 days exposure; for GBA EC1.5: concentration giving 150% GCase activity (1.5-fold induction), 8-point dose range; for Emax / GBA Emax: maximum percent GCase activity relative to untreated cells in the dose range tested. The format is cell-based. The method in brief: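 Patient fibroblasts GM10915 (L444P GBA) exposed to compounds for five days over an 8-point range, with fresh dosing every 2–3 days. Intact-cell GCase measured with 2.5 mM 4-MUG at pH 4.0 for 23 h at 37 °C (ex/em 365/445 nm), normalised to crystal violet, as % of PBS basal; Emax is the maximum reached.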

For the compound `COCCC1(C2=NOCC(CN3CCCCC3)O2)CCNC1` (racemic) [compound 685, rac-3-(3-(2-methoxyethyl)pyrrolidin-3-yl)-5-(piperidin-1-ylmethyl)-5,6-dihydro-1,4,2-dioxazine], the “GBA EC1.5” value came to 12 µM and the Emax stood at 270%.
Take `FC1(F)CNCCC1C1=NOCC(CN2CCCCC2)O1` (stereo not shown) [compound 636]: the “GBA EC1.5” value came out at 50 µM and the maximum response (Emax) amounted to 126%.
On the same counts, the results for `C[C@@H]1CNC[C@H]1C1=NOCC(CN2CCCCC2)O1` (relative stereo) [compound 551, rac-rel-trans-3-((3R,4R)-4-methylpyrrolidin-3-yl)-5-(piperidin-1-ylmethyl)-5,6-dihydro-1,4,2-dioxazine] are 14 µM and 185%.
For the compound `CN1CC2(C)CN(CC3CON=C(C4(C)CCNCC4)O3)CC2(C)C1` (stereo not shown) [compound 628], the “GBA EC1.5” value was found to be 43 µM and the Emax amounted to 136%.
For the compound `COc1ncc(CC2(C3=NOC(C)C(CN4CCCCC4)O3)CCNC2)cc1Cl` (stereo not shown) [compound 647], the “GBA EC1.5” value stood at 50 µM and the Emax is 103%.
`C[C@H](N)C(=O)N1CCCC(C2=NOCC(CN3CCCCC3)O2)C1` (stereo partly drawn) [compound 718, rac-(2S)-2-amino-1-(3-(5-(piperidin-1-ylmethyl)-5,6-dihydro-1,4,2-dioxazin-3-yl)piperidin-1-yl)propan-1-one]: the “GBA EC1.5” value worked out at 17 µM and the maximal effect (Emax) was 341%.
In the same order, the values of `CN1CCC(C2=NOCC(CN3CCCCC3)O2)C1` (racemic) [compound 546, rac-3-(1-methylpyrrolidin-3-yl)-5-(piperidin-1-ylmethyl)-5,6-dihydro-1,4,2-dioxazine] are 18 µM and 253%.
As for `c1cn2c(n1)CC(C1=NOCC(CN3CCCCC3)O1)CC2` (racemic) [compound 660, rac-5-(piperidin-1-ylmethyl)-3-(5,6,7,8-tetrahydroimidazo[1,2-a]pyridin-7-yl)-5,6-dihydro-1,4,2-dioxazine], the “GBA EC1.5” value came out at 9 µM and the Emax stood at 212%.
In the case of `CN1CCN(CCC2=NOCC(CN3CCCCC3)O2)CC1` (racemic) [compound 823, rac-3-(2-(4-methylpiperazin-1-yl)ethyl)-5-(piperidin-1-ylmethyl)-5,6-dihydro-1,4,2-dioxazine], the “GBA EC1.5” value was determined as 18 µM and the Emax was 312%.
In the case of `C1CCN(CCC2=NOC[C@@H](CN3CCCCC3)O2)CC1` [compound 890], the “GBA EC1.5” value came to 8 µM and the Emax is 168%.
In the case of `CN(C)CCC1=NOCC(CN2CCCCC2)O1` (racemic) [compound 779, rac-N,N-dimethyl-2-(5-(piperidin-1-ylmethyl)-5,6-dihydro-1,4,2-dioxazin-3-yl)ethan-1-amine], the “GBA EC1.5” value came out at 11 µM and the Emax stood at 259%.
In the case of `COCCC1(C2=NOCC(CN3CCCCC3)O2)CCN(C)C1` (racemic) [compound 701, rac-3-(3-(2-methoxyethyl)-1-methylpyrrolidin-3-yl)-5-(piperidin-1-ylmethyl)-5,6-dihydro-1,4,2-dioxazine], the “GBA EC1.5” value was determined as 21 µM and the Emax worked out at 225%.
In the same order, the values of `COc1ncc(CC2(C3=NOCC(CN4CCCCC4)O3)CCNCC2)cc1Cl` (stereo not shown) [compound 545] are 1 µM and 140%.
`c1cncc(CC2(C3=NOCC(CN4CCCCC4)O3)CCOCC2)c1` (stereo not shown) [compound 552]: the “GBA EC1.5” value came out at 50 µM and the Emax came to 115%.
As to `C1CCN(CC2CON=C([C@]34CCC[C@H]3NCC4)O2)CC1` (relative stereo) [compound 584, rac-rel-trans-3-((3aS,6aR)-hexahydrocyclopenta[b]pyrrol-3a(1H)-yl)-5-(piperidin-1-ylmethyl)-5,6-dihydro-1,4,2-dioxazine], the “GBA EC1.5” value is 10 µM and 5 µM; the “GBA Emax” value is 253% and 204%.
For the compound `c1sc(C2CCNCC2)nc1C1=NOCC(CN2CCCCC2)O1` (stereo not shown) [compound 878], the “GBA EC1.5” value worked out at 3 µM and the Emax is 231%.
In the same order, the values of `CC1(C2=NOCC(CN3CCCCC3)O2)CCNCC1` (single isomer, unassigned) [compound 567] are 7 µM and 296%.
Take `COc1cc(C)c(CC2(C3=NOCC(CN4CCCCC4)O3)CCNCC2)cn1` (stereo not shown) [compound 702]: the “GBA EC1.5” value came to 50 µM and the maximum response (Emax) came out at 110%.
For the compound `COC1CNCC(C2=NOCC(CN3CCCCC3)O2)C1` (racemic) [compound 680, rac-3-(5-methoxypiperidin-3-yl)-5-(piperidin-1-ylmethyl)-5,6-dihydro-1,4,2-dioxazine], the “GBA EC1.5” value worked out at 20 µM and the maximal response (Emax) was determined as 209%.
As for `COC1CN(C)CCC1C1=NOCC(CN2CCCCC2)O1` (racemic) [compound 720, rac-3-(3-methoxy-1-methylpiperidin-4-yl)-5-(piperidin-1-ylmethyl)-5,6-dihydro-1,4,2-dioxazine], the “GBA EC1.5” value worked out at 11 µM and the maximum response (Emax) was 346%.
As for `CN(C)C(=O)CN1CCCC(C2=NOCC(CN3CCCCC3)O2)C1` (racemic) [compound 710, rac-N,N-dimethyl-2-(3-(5-(piperidin-1-ylmethyl)-5,6-dihydro-1,4,2-dioxazin-3-yl)piperidin-1-yl)acetamide], the “GBA EC1.5” value turned out to be 28 µM and the Emax worked out at 234%.
Consider `NC(=O)N1CCC(C2=NOCC(CN3CCCCC3)O2)CC1` (stereo not shown) [compound 639], for which the “GBA EC1.5” value turned out to be 50 µM and the maximal effect (Emax) worked out at 112%.
On the same counts, the results for `Cc1cncc(CC2(C3=NOCC(CN4CCCCC4)O3)CCNCC2)c1` (stereo not shown) [compound 520] are 13 µM and 136%.
Regarding `C1CCN(CC2CON=C([C@]34CCN[C@H]3CCOC4)O2)CC1` (relative stereo) [compound 462, rac-rel-trans(3aR,7aS)-3a-(5-(piperidin-1-ylmethyl)-5,6-dihydro-1,4,2-dioxazin-3-yl)octahydropyrano[4,3-b]pyrrole di-2,2,2-trifluoroacetate], the “GBA EC1.5” value came to 9 µM and the Emax was 241%.
Consider `CC1(C2=NOCC(CN3CCCCC3)O2)CCCNC1` (racemic) [compound 476, rac-3-(3-methylpiperidin-3-yl)-5-(piperidin-1-ylmethyl)-5,6-dihydro-1,4,2-dioxazine], for which the “GBA EC1.5” value worked out at 6 µM and the Emax was determined as 253%.
For `Cn1cnc(CC2(C3=NOCC(CN4CCCCC4)O3)CCNCC2)c1` (stereo not shown) [compound 582], the “GBA EC1.5” value was 50 µM and the maximum response (Emax) turned out to be 114%.
`CN1C(=O)CC(C2=NOCC(CN3CCCCC3)O2)c2ccccc21` (stereo not shown) [compound 664]: the “GBA EC1.5” value amounted to 50 µM and the maximum response (Emax) came out at 137%.
On to `CN1CCCC(C)(C2=NOCC(CN3CCCCC3)O2)C1` (racemic) [compound 529, rac-3-(1,3-dimethylpiperidin-3-yl)-5-(piperidin-1-ylmethyl)-5,6-dihydro-1,4,2-dioxazine], for which the “GBA EC1.5” value was determined as 11 µM and the maximum response (Emax) came out at 222%.
Regarding `CC1(C2=NOC[C@@H](CN3CCCCC3)O2)CCNCC1` [compound 892], the “GBA EC1.5” value amounted to 13 µM and the “GBA Emax” value is 274%.
Regarding `c1nc(C2CCCNC2)sc1C1=NOCC(CN2CCCCC2)O1` (stereo not shown) [compound 875], the “GBA EC1.5” value was 5 µM and the Emax worked out at 165%.
On the same counts, the results for `CC1ON=C(C2(C)CCNCC2)OC1CN1CCCCC1` (racemic) [compound 531, rac-6-methyl-3-(4-methylpiperidin-4-yl)-5-(piperidin-1-ylmethyl)-5,6-dihydro-1,4,2-dioxazine] are 7 µM and 282%.
`O=C1CCC(C2=NOCC(CN3CCCCC3)O2)CN1` (stereo not shown) [compound 617]: the “GBA EC1.5” value worked out at 50 µM and the Emax came out at 113%.
Consider `CC1NCCC1C1=NOCC(CN2CCCCC2)O1` (racemic) [compound 559, rac-3-(2-methylpyrrolidin-3-yl)-5-(piperidin-1-ylmethyl)-5,6-dihydro-1,4,2-dioxazine], for which the “GBA EC1.5” value stood at 16 µM and the maximal response (Emax) was 251%.
With `CC(C)C1ON=C(C2CCN(C)C2)OC1CN1CCCCC1` (racemic) [compound 707, rac-6-isopropyl-3-(1-methylpyrrolidin-3-yl)-5-(piperidin-1-ylmethyl)-5,6-dihydro-1,4,2-dioxazine], the “GBA EC1.5” value was 4 µM and 2 µM; the maximal effect (Emax) is 249%; the “GBA Emax” value was 230%.
For the compound `COc1ncc(CC2(C3=NOC(C)C(CN4CCCCC4)O3)CCN(C)C2)cc1Cl` (stereo not shown) [compound 646], the “GBA EC1.5” value worked out at 50 µM and the Emax came to 112%.
On to `COC1CNC(C)(C2=NOCC(CN3CCCCC3)O2)C1` (racemic) [compound 565, rac-3-(4-methoxy-2-methylpyrrolidin-2-yl)-5-(piperidin-1-ylmethyl)-5,6-dihydro-1,4,2-dioxazine], for which the “GBA EC1.5” value was 37 µM and the Emax is 168%.

The record behind these values is patent US20240390383A1, “DIOXAZINES AND THEIR USE IN TREATMENT OF GBA-RELATED DISEASES” (ZEVRA DENMARK A/S, priority 2021, published 2024).
